According to PubChem BioAssay (NCI):
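Method: 48-hour compound exposure of cells in 96-well plates, five concentrations, linear interpolation of endpoints. GI50 = concentration required for 50% inhibition of growth. TGI denotes the concentration required for complete inhibition of growth.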

What was measured:
Experiment in all cases: growth of human tumour cells (NCI), 48 h
786-0 renal = test system: 786-0 renal
A498 renal = test system: A498 renal
A549 NSCLC = test system: A549 NSCLC
ACHN renal = test system: ACHN renal
BT-549 breast = test system: BT-549 breast
CAKI-1 renal = test system: CAKI-1 renal
CCRF-CEM leukemia = test system: CCRF-CEM leukemia
COLO 205 colon = test system: COLO 205 colon
DU-145 prostate = test system: DU-145 prostate
EKVX NSCLC = test system: EKVX NSCLC
HCC-2998 colon = test system: HCC-2998 colon
HCT-116 colon = test system: HCT-116 colon
HCT-15 colon = test system: HCT-15 colon
HL-60(TB) leukemia = test system: HL-60(TB) leukemia
HOP-62 NSCLC = test system: HOP-62 NSCLC
HOP-92 NSCLC = test system: HOP-92 NSCLC
HS 578T breast = test system: HS 578T breast
HT29 colon = test system: HT29 colon
IGROV1 ovarian = test system: IGROV1 ovarian
K-562 leukemia = test system: K-562 leukemia
KM12 colon = test system: KM12 colon
LOX IMVI melanoma = test system: LOX IMVI melanoma
M14 melanoma = test system: M14 melanoma
MALME-3M melanoma = test system: MALME-3M melanoma
MCF7 breast = test system: MCF7 breast
MDA-MB-231 breast = test system: MDA-MB-231 breast
MDA-MB-435 = test system: MDA-MB-435
MDA-MB-468 breast = test system: MDA-MB-468 breast
MOLT-4 leukemia = test system: MOLT-4 leukemia
NCI-H226 lung = test system: NCI-H226 lung

O=C1c2c(c3c4cc(F)ccc4oc3c3[nH]c4ccc(Br)cc4c23)C(=O)N1O
GI50 (786-0 renal): 3.84 µM
TGI (786-0 renal): > 50.6 µM
GI50 (A498 renal): 26.6 µM
TGI (A498 renal): 70.9 µM
GI50 (A549 NSCLC): > 52.1 µM
TGI (A549 NSCLC): > 100 µM
GI50 (ACHN renal): 0.372 µM
TGI (ACHN renal): 13.3 µM
GI50 (BT-549 breast): 1.84 µM
TGI (BT-549 breast): > 100 µM
GI50 (CAKI-1 renal): 1.34 µM
TGI (CAKI-1 renal): > 100 µM
GI50 (CCRF-CEM leukemia): 0.193 µM
TGI (CCRF-CEM leukemia): > 100 µM
GI50 (COLO 205 colon): > 33 µM
TGI (COLO 205 colon): > 100 µM
GI50 (DU-145 prostate): 0.735 µM
TGI (DU-145 prostate): > 100 µM
GI50 (EKVX NSCLC): 25.8 µM
TGI (EKVX NSCLC): > 100 µM
GI50 (HCC-2998 colon): 11.5 µM
TGI (HCC-2998 colon): > 100 µM
GI50 (HCT-116 colon): 2.09 µM
TGI (HCT-116 colon): > 100 µM
GI50 (HCT-15 colon): 3.57 µM
TGI (HCT-15 colon): > 100 µM
GI50 (HL-60(TB) leukemia): 6.07 µM
TGI (HL-60(TB) leukemia): > 100 µM
GI50 (HOP-62 NSCLC): 0.833 µM
TGI (HOP-62 NSCLC): > 57.8 µM
GI50 (HOP-92 NSCLC): 2.35 µM
TGI (HOP-92 NSCLC): 13.2 µM
GI50 (HS 578T breast): 2.42 µM
TGI (HS 578T breast): > 34.9 µM
GI50 (HT29 colon): 6.86 µM
TGI (HT29 colon): > 100 µM
GI50 (IGROV1 ovarian): 1.05 µM
TGI (IGROV1 ovarian): > 100 µM
TGI (K-562 leukemia): > 100 µM
GI50 (KM12 colon): 5.89 µM
TGI (KM12 colon): > 100 µM
GI50 (LOX IMVI melanoma): 0.227 µM
TGI (LOX IMVI melanoma): 1.4 µM
GI50 (M14 melanoma): 0.542 µM
TGI (M14 melanoma): > 100 µM
GI50 (MALME-3M melanoma): 2.5 µM
TGI (MALME-3M melanoma): 16.1 µM
GI50 (MCF7 breast): 0.488 µM
TGI (MCF7 breast): > 100 µM
GI50 (MDA-MB-231 breast): 4.99 µM
TGI (MDA-MB-231 breast): 64.3 µM
GI50 (MDA-MB-435): 4.91 µM
TGI (MDA-MB-435): > 100 µM
GI50 (MDA-MB-468 breast): 3.45 µM
TGI (MDA-MB-468 breast): 23 µM
GI50 (MOLT-4 leukemia): 0.505 µM
TGI (MOLT-4 leukemia): > 100 µM
GI50 (NCI-H226 lung): 8.35 µM
